Reference: PubChem BioAssay (NCI)
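In this assay, cells in 96-well plates receive the compound at five concentrations for 48 hours. Endpoints are linearly interpolated between the surrounding concentrations. GI50 = concentration required for 50% inhibition of growth. The concentration for full growth arrest is given as TGI.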

How the values were obtained:
Test in all cases: NCI-60 cell line screen, 48 h
[1] = system: EKVX NSCLC
[2] = system: BT-549 breast
[3] = system: SW-620 colon
[4] = system: NCI-H522 lung
[5] = system: UACC-62 melanoma
[6] = system: SNB-75 CNS
[7] = system: SK-MEL-28 melanoma
[8] = system: LOX IMVI melanoma
[9] = system: SF-539 CNS
[10] = system: UACC-257 melanoma
[11] = system: A549 NSCLC
[12] = system: HT29 colon
[13] = system: ACHN renal
[14] = system: HCT-15 colon
[15] = system: M14 melanoma
[16] = system: HCT-116 colon
[17] = system: RXF 393 renal
[18] = system: SN12C renal
[19] = system: MCF7 breast
[20] = system: SK-OV-3 ovarian
[21] = system: 786-0 renal
[22] = system: MDA-MB-435
[23] = system: OVCAR-8 ovarian
[24] = system: A498 renal
[25] = system: CCRF-CEM leukemia
[26] = system: SF-295 CNS
[27] = system: DU-145 prostate
[28] = system: RPMI-8226 leukemia
[29] = system: K-562 leukemia
[30] = system: NCI/ADR-RES ovarian
[31] = system: MALME-3M melanoma
[32] = system: SK-MEL-2 melanoma
[33] = system: HOP-62 NSCLC
[34] = system: CAKI-1 renal
[35] = system: SR leukemia
[36] = system: U251 CNS
[37] = system: OVCAR-5 ovarian
[38] = system: NCI-H23 lung
[39] = system: HOP-92 NSCLC
[40] = system: IGROV1 ovarian
[41] = system: NCI-H460 lung
[42] = system: KM12 colon
[43] = system: NCI-H226 lung
[44] = system: OVCAR-3 ovarian
[45] = system: HL-60(TB) leukemia
[46] = system: OVCAR-4 ovarian
[47] = system: UO-31 renal
[48] = system: SF-268 CNS
[49] = system: HCC-2998 colon
[50] = system: COLO 205 colon
[51] = system: T-47D breast
[52] = system: PC-3 prostate
[53] = system: MDA-MB-231 breast
[54] = system: MOLT-4 leukemia
[55] = system: SNB-19 CNS
[56] = system: HS 578T breast
[57] = system: SK-MEL-5 melanoma
[58] = system: TK-10 renal

**Q.** What does the source list for `N#Cc1nc2cc(Cl)c(Cl)cc2nc1-c1ccc(Cl)cc1`?
**A.** GI50 [1]: > 100 µM; TGI [1]: > 100 µM; GI50 [2]: > 100 µM; TGI [2]: > 100 µM; GI50 [3]: > 100 µM; TGI [3]: > 100 µM; GI50 [4]: 51.5 µM; TGI [4]: > 100 µM; GI50 [5]: 33.2 µM; TGI [5]: > 70.9 µM; GI50 [6]: 19.9 µM; TGI [6]: 40.2 µM; GI50 [7]: > 92 µM; TGI [7]: > 100 µM; GI50 [8]: 71 µM; TGI [8]: > 100 µM; GI50 [9]: 46.2 µM; TGI [9]: > 100 µM; GI50 [10]: 97.4 µM; TGI [10]: > 100 µM; GI50 [11]: 13.8 µM; TGI [11]: > 46.6 µM; GI50 [12]: > 100 µM; TGI [12]: > 100 µM; GI50 [13]: 20 µM; TGI [13]: 47.6 µM; GI50 [14]: > 71.9 µM; TGI [14]: > 100 µM; GI50 [15]: > 85.3 µM; TGI [15]: > 100 µM; GI50 [16]: 15.8 µM; TGI [16]: 29.9 µM; GI50 [17]: 11.2 µM; TGI [17]: > 42.6 µM; GI50 [18]: 28.5 µM; TGI [18]: > 78.6 µM; GI50 [19]: 37.3 µM; TGI [19]: > 100 µM; GI50 [20]: > 48.3 µM; TGI [20]: > 80.5 µM; GI50 [21]: 16.8 µM; TGI [21]: 34.8 µM; GI50 [22]: > 83.4 µM; TGI [22]: > 100 µM; GI50 [23]: 55.7 µM; TGI [23]: > 100 µM; GI50 [24]: 21.5 µM; TGI [24]: 60.7 µM; GI50 [25]: 8.61 µM; TGI [25]: 25.7 µM; GI50 [26]: 19.6 µM; TGI [26]: 43.1 µM; GI50 [27]: 49.6 µM; TGI [27]: > 100 µM; GI50 [28]: 24.3 µM; TGI [28]: > 100 µM; GI50 [29]: > 56.1 µM; TGI [29]: > 100 µM; GI50 [30]: > 42.2 µM; TGI [30]: > 83.4 µM; GI50 [31]: > 42.2 µM; TGI [31]: > 100 µM; GI50 [32]: > 56 µM; TGI [32]: > 100 µM; GI50 [33]: 21 µM; TGI [33]: 41.6 µM; GI50 [34]: 34 µM; TGI [34]: > 66.8 µM; GI50 [35]: 22 µM; TGI [35]: 53.1 µM; GI50 [36]: 19.3 µM; TGI [36]: 39.3 µM; GI50 [37]: > 100 µM; TGI [37]: > 100 µM; GI50 [38]: > 60.5 µM; TGI [38]: > 100 µM; GI50 [39]: 27.8 µM; TGI [39]: > 100 µM; GI50 [40]: 73.2 µM; TGI [40]: > 100 µM; GI50 [41]: 37.6 µM; TGI [41]: > 100 µM; GI50 [42]: > 60.5 µM; TGI [42]: > 100 µM; GI50 [43]: 21.7 µM; TGI [43]: > 61.6 µM; GI50 [44]: 1.89 µM; TGI [44]: > 47.8 µM; GI50 [45]: > 100 µM; TGI [45]: > 100 µM; GI50 [46]: > 100 µM; TGI [46]: > 100 µM; GI50 [47]: 34.7 µM; TGI [47]: > 100 µM; GI50 [48]: 27.4 µM; TGI [48]: > 72.7 µM; GI50 [49]: 0.165 µM; TGI [49]: 18.2 µM; GI50 [50]: > 76.3 µM; TGI [50]: > 100 µM; GI50 [51]: > 66.1 µM; TGI [51]: > 100 µM; GI50 [52]: 34.8 µM; TGI [52]: > 67.7 µM; GI50 [53]: 22.3 µM; TGI [53]: > 73.4 µM; GI50 [54]: 26.9 µM; TGI [54]: > 60.4 µM; GI50 [55]: > 43.4 µM; TGI [55]: > 60.6 µM; GI50 [56]: 17.1 µM; TGI [56]: 70.2 µM; GI50 [57]: 44.3 µM; TGI [57]: > 100 µM; GI50 [58]: 21.3 µM; TGI [58]: 46.3 µM
